In patent US12599672B2, “KRAS proteolysis targeting chimeras” (PAQ Therapeutics Inc., priority 2023, dated 2026):

Columns and labels:
KRAS G12V = molecular target: T1, KRAS G12V (Homo sapiens, UniProt P01116, G12V); experiment: KRAS G12V HiBit assay; assay type: cell-based; conditions: SW620-KRAS (G12V)-HiBit-KI cells, compound treatment for 24 hours, class symbols
T1 construct: SW620-KRAS (G12V)-HiBit-KI cell (Pharmaron); host or cells: SW620-KRAS (G12V)-HiBit-KI cells (HiBiT knock-in at the endogenous KRAS locus)
T1 sequence (P01116 1-188 isoform P01116-2 G12V): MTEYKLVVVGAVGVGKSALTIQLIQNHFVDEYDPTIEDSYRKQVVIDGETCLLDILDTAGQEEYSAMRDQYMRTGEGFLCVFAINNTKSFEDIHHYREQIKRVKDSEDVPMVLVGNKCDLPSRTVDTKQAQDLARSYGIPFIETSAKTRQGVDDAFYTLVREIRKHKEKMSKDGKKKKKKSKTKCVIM
In short: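 HiBiT-tagged KRAS G12V cells treated 24 h with compound in a 3-fold, 10-point series (0.3 mM DMSO stock); lytic HiBiT reagent with LgBiT added after 15 min room-temperature equilibration. Degradation calculated against 0.1% DMSO high control.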

KRAS G12D = molecular target: T2, KRAS G12D (Homo sapiens, UniProt P01116, G12D); experiment: KRAS G12D HiBit assay; assay type: cell-based; conditions: AsPc-1-KRAS (G12D)-HiBit-KI cell, compound treatment for 24 hours, absolute DC50
T2 construct: AsPc-1-KRAS (G12D)-HiBit-KI cell (Pharmaron); host or cells: AsPc-1-KRAS (G12D)-HiBit-KI cells (HiBiT knock-in at the endogenous KRAS locus)
T2 sequence (P01116 1-188 isoform P01116-2 G12D): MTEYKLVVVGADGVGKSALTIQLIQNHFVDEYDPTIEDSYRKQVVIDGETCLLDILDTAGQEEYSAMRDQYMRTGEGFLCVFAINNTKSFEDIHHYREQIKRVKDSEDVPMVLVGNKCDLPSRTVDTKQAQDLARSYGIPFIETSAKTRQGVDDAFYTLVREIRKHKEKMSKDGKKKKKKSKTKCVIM
In short: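 Cells were treated for 24 h with compounds in a 3-fold, 10-point dilution series from a 0.3 mM DMSO stock, then equilibrated 15 min at room temperature. KRAS G12D HiBiT levels were read by luminescence after lytic Nano-Glo HiBiT reagent with LgBiT; inhibition calculated relative to 0.1% DMSO high control.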

[1] = numeric bounds given in place of class symbols

| DC50 (KRAS G12V) | DC50 (KRAS G12D; [1]) | DC50 (KRAS G12D; class symbols) | SMILES |
| --- | --- | --- | --- |
| 10 to 100 nM | > 100 nM |  | CCc1c(F)ccc2cc(O)cc(-c3ncc4c(N5CCC[C@@](C)(O)C5)nc(OCC56CCCN5C(COCCCN5CCC(c7ccc8c(c7)n(C)c(=O)n8C7CCC(=O)NC7=O)CC5)CC6)nc4c3F)c12 (stereo partly drawn) [Compound 449, 3-(5-(1-(3-((7a-(((7-(8-ethyl-7-fluoro-3-hydroxynaphthalen-1-yl)-8-fluoro-4-((R)-3-hydroxy-3-methylpiperidin-1-yl)pyrido[4,3-d]pyrimidin-2-yl)oxy)methyl)hexahydro-1H-pyrrolizin-3-yl)methoxy)propyl)piperidin-4-yl)-3-methyl-2-oxo-2,3-dihydro-1H-benzo[d]imidazol-1-yl)piperidine-2,6-dione] |
| < 10 nM |  | < 100 nM | CCc1c(F)ccc2cc(O)cc(-c3ncc4c(N5CCC[C@@](C)(O)C5)nc(OC[C@@]56CCCN5[C@H](COC(=O)N5CCC7(CC5)CN(C5CCN(c8ccc9c(c8)n(C)c(=O)n9C8CCC(=O)NC8=O)CC5)C7)CC6)nc4c3F)c12 (stereo partly drawn) [Compound 463, ((3S,7aS)-7a-(((7-(8-ethyl-7-fluoro-3-hydroxynaphthalen-1-yl)-8-fluoro-4-((R)-3-hydroxy-3-methylpiperidin-1-yl)pyrido[4,3-d]pyrimidin-2-yl)oxy)methyl)hexahydro-1H-pyrrolizin-3-yl)methyl 2-(1-(1-(2,6-dioxopiperidin-3-yl)-3-methyl-2-oxo-2,3-dihydro-1H-benzo[d]imidazol-5-yl)piperidin-4-yl)-2,7-diazaspiro[3.5]nonane-7-carboxylate] |
| 10 to 100 nM |  | < 100 nM | CCc1c(F)ccc2cc(O)cc(-c3ncc4c(N5CCC[C@@](C)(O)C5)nc(OC[C@@]56CCCN5[C@H](CCCN5CCC7(CC5)CC(N5CCC(c8ccc9c(c8)n(C)c(=O)n9C8CCC(=O)NC8=O)CC5)C7)CC6)nc4c3F)c12 (stereo partly drawn) [Compound 472, 3-(5-(1-(7-(3-((3R,7aS)-7a-(((7-(8-Ethyl-7-fluoro-3-hydroxynaphthalen-1-yl)-8-fluoro-4-((R)-3-hydroxy-3-methylpiperidin-1-yl)pyrido[4,3-d]pyrimidin-2-yl)oxy)methyl)hexahydro-1H-pyrrolizin-3-yl)propyl)-7-azaspiro[3.5]nonan-2-yl)piperidin-4-yl)-3-methyl-2-oxo-2,3-dihydro-1H-benzo[d]imidazol-1-yl) piperidine-2,6-dione] |
| > 100 nM | > 100 nM |  | CCc1c(F)ccc2cc(O)cc(-c3ncc4c(N5CCC[C@@](C)(O)C5)nc(OC[C@@]56CCCN5[C@H](CN5CCC(OCCCc7ccc8c(c7)n(C)c(=O)n8C7CCC(=O)NC7=O)CC5)CC6)nc4c3F)c12 (stereo partly drawn) [Compound 486, 3-(5-(3-((1-(((3S,7aS)-7a-(((7-(8-ethyl-7-fluoro-3-hydroxynaphthalen-1-yl)-8-fluoro-4-((R)-3-hydroxy-3-methylpiperidin-1-yl)pyrido[4,3-d]pyrimidin-2-yl)oxy)methyl)hexahydro-1H-pyrrolizin-3-yl)methyl)piperidin-4-yl)oxy)propyl)-3-methyl-2-oxo-2,3-dihydro-1H-benzo[d]imidazol-1-yl)piperidine-2,6-dione] |
| 10 to 100 nM |  | < 100 nM | CCc1c(F)ccc2cc(O)cc(-c3ncc4c(N5CCC[C@@](C)(O)C5)nc(OC[C@@]56CCCN5[C@H](CNC(=O)c5ccc(CN7CCC(c8ccc9c(c8)n(C)c(=O)n9C8CCC(=O)NC8=O)CC7)cc5F)CC6)nc4c3F)c12 (stereo partly drawn) [Compound 494, 4-((4-(1-(2,6-dioxopiperidin-3-yl)-3-methyl-2-oxo-2,3-dihydro-1H-benzo[d]imidazol-5-yl)piperidin-1-yl)methyl)-N-(((3S,7aS)-7a-(((7-(8-ethyl-7-fluoro-3-hydroxynaphthalen-1-yl)-8-fluoro-4-((R)-3-hydroxy-3-methylpiperidin-1-yl)pyrido[4,3-d]pyrimidin-2-yl)oxy)methyl)hexahydro-1H-pyrrolizin-3-yl)methyl)-2-fluorobenzamide] |
| 10 to 100 nM |  | < 100 nM | CCc1c(F)ccc2cc(O)cc(-c3ncc4c(N5CCC[C@@](C)(O)C5)nc(OC[C@@]56CCCN5[C@H](COc5ccc(CCN7CCC(c8ccc9c(c8)n(C)c(=O)n9C8CCC(=O)NC8=O)CC7)cc5)CC6)nc4c3F)c12 (stereo partly drawn) [Compound 499, 3-(5-(1-(4-(((3S,7aS)-7a-(((7-(8-Ethyl-7-fluoro-3-hydroxynaphthalen-1-yl)-8-fluoro-4-((R)-3-hydroxy-3-methylpiperidin-1-yl)pyrido[4,3-d]pyrimidin-2-yl)oxy)methyl)hexahydro-1H-pyrrolizin-3-yl)methoxy)phenethyl)piperidin-4-yl)-3-methyl-2-oxo-2,3-dihydro-1H-benzo[d]imidazol-1-yl) piperidine-2,6-dione] |

Further lines, the compound ahead of its results:

| SMILES | DC50 (KRAS G12V) | DC50 (KRAS G12D; [1]) | DC50 (KRAS G12D; class symbols) |
| --- | --- | --- | --- |
| CCc1cccc2cc(O)cc(-c3cc4nc(OC[C@@]56CCCN5[C@H](COC(=O)N5CCC7(CC5)CC(N5CCC(c8ccc9c(c8)n(C)c(=O)n9C8CCC(=O)NC8=O)CC5)C7)CC6)nc(N5CCC[C@@](C)(O)C5)c4cn3)c12 (stereo partly drawn) [Compound 487, ((3S,7aS)-7a-(((7-(8-ethyl-3-hydroxynaphthalen-1-yl)-4-((R)-3-hydroxy-3-methylpiperidin-1-yl)pyrido[4,3-d]pyrimidin-2-yl)oxy)methyl)hexahydro-1H-pyrrolizin-3-yl)methyl 2-(4-(1-(2,6-dioxopiperidin-3-yl)-3-methyl-2-oxo-2,3-dihydro-1H-benzo[d]imidazol-5-yl)piperidin-1-yl)-7-azaspiro[3.5]nonane-7-carboxylate] | < 10 nM |  | < 100 nM |
| CCc1c(F)ccc2cc(O)cc(-c3ncc4c(N5CCC[C@@](C)(O)C5)nc(OC[C@@]56CCCN5C(COCCCN5CCC(c7ccc8c(c7)n(C)c(=O)n8C7CCC(=O)NC7=O)CC5)CC6)nc4c3F)c12 (stereo partly drawn) [Compound 490, 3-(5-(1-(3-(((7aS)-7a-(((7-(8-ethyl-7-fluoro-3-hydroxynaphthalen-1-yl)-8-fluoro-4-((R)-3-hydroxy-3-methylpiperidin-1-yl)pyrido[4,3-d]pyrimidin-2-yl)oxy)methyl)hexahydro-1H-pyrrolizin-3-yl)methoxy)propyl)piperidin-4-yl)-3-methyl-2-oxo-2,3-dihydro-1H-benzo[d]imidazol-1-yl)piperidine-2,6-dione] | > 100 nM | > 100 nM |  |
| CCc1c(F)ccc2cc(O)cc(-c3ncc4c(N5CCC[C@@](C)(O)C5)cc(OC[C@@]56CCCN5[C@H](COC(=O)N5CCC(CN7CCC(c8ccc9c(c8)n(C)c(=O)n9C8CCC(=O)NC8=O)CC7)CC5)CC6)nc4c3F)c12 (stereo partly drawn) [Compound 492, ((3S,7aS)-7a-(((7-(8-ethyl-7-fluoro-3-hydroxynaphthalen-1-yl)-8-fluoro-4-((R)-3-hydroxy-3-methylpiperidin-1-yl)-1,6-naphthyridin-2-yl)oxy)methyl)hexahydro-1H-pyrrolizin-3-yl)methyl 4-((4-(1-(2,6-dioxopiperidin-3-yl)-3-methyl-2-oxo-2,3-dihydro-1H-benzo[d]imidazol-5-yl)piperidin-1-yl)methyl)piperidine-1-carboxylate] | > 100 nM |  | < 100 nM |
| CCc1c(F)ccc2cc(O)cc(-c3ncc4c(N5CCC[C@@](C)(O)C5)nc(OC[C@@]56CCCN5[C@H](COC(=O)c5ccc(N7CCC(c8ccc9c(c8)n(C)c(=O)n9C8CCC(=O)NC8=O)CC7)cc5)CC6)nc4c3F)c12 (stereo partly drawn) [Compound 495, ((3S,7aS)-7a-(((7-(8-ethyl-7-fluoro-3-hydroxynaphthalen-1-yl)-8-fluoro-4-((R)-3-hydroxy-3-methylpiperidin-1-yl)pyrido[4,3-d]pyrimidin-2-yl)oxy)methyl)hexahydro-1H-pyrrolizin-3-yl)methyl 4-(4-(1-(2,6-dioxopiperidin-3-yl)-3-methyl-2-oxo-2,3-dihydro-1H-benzo[d]imidazol-5-yl)piperidin-1-yl)benzoate] | 10 to 100 nM |  | < 100 nM |
| CCc1c(F)ccc2cc(O)cc(-c3ncc4c(N5CCC[C@@](C)(O)C5)nc(OC[C@@]56CCCN5[C@H](COC(=O)N5CCC(Oc7ccc(-c8ccc9c(c8)n(C)c(=O)n9C8CCC(=O)NC8=O)cc7)CC5)CC6)nc4c3F)c12 (stereo partly drawn) [Compound 496, ((3S,7aS)-7a-(((7-(8-ethyl-7-fluoro-3-hydroxynaphthalen-1-yl)-8-fluoro-4-((R)-3-hydroxy-3-methylpiperidin-1-yl)pyrido[4,3-d]pyrimidin-2-yl)oxy)methyl)hexahydro-1H-pyrrolizin-3-yl)methyl 4-(4-(1-(2,6-dioxopiperidin-3-yl)-3-methyl-2-oxo-2,3-dihydro-1H-benzo[d]imidazol-5-yl)phenoxy)piperidine-1-carboxylate] | > 100 nM | > 100 nM |  |
| CCc1c(F)ccc2cc(O)cc(-c3ncc4c(N5CCC[C@@](C)(O)C5)nc(OC[C@@]56CCCN5[C@H](COC(=O)N5CCC(C)(CN7CCN(c8ccc9c(c8)n(C)c(=O)n9C8CCC(=O)NC8=O)CC7)CC5)CC6)nc4c3F)c12 (stereo partly drawn) [Compound 502, ((3S,7aS)-7a-(((7-(8-ethyl-7-fluoro-3-hydroxynaphthalen-1-yl)-8-fluoro-4-((R)-3-hydroxy-3-methylpiperidin-1-yl)pyrido[4,3-d]pyrimidin-2-yl)oxy)methyl)hexahydro-1H-pyrrolizin-3-yl)methyl 4-((4-(1-(2,6-dioxopiperidin-3-yl)-3-methyl-2-oxo-2,3-dihydro-1H-benzo[d]imidazol-5-yl)piperazin-1-yl)methyl)-4-methylpiperidine-1-carboxylate] | < 10 nM |  | < 100 nM |
